Literature values in patent US20110268770A1, “CHEWABLE GELLED EMULSIONS” (PROBIO ASA, priority 2008, published 2011).

Conditions: commercially available statins

solubility class (water-soluble or lipid-soluble) | Compound
lipid-soluble | CC[C@H](C)C(=O)O[C@H]1C[C@@H](C)C=C2C=C[C@H](C)[C@H](CC[C@@H]3C[C@@H](O)CC(=O)O3)[C@H]21 [lovastatin]
water-soluble | CC[C@H](C)C(=O)O[C@H]1C[C@H](O)C=C2C=C[C@H](C)[C@H](CC[C@@H](O)C[C@@H](O)CC(=O)O)[C@H]21 [pravastatin]
water-soluble | CC(C)c1nc(N(C)S(C)(=O)=O)nc(-c2ccc(F)cc2)c1/C=C/[C@@H](O)C[C@@H](O)CC(=O)O [rosuvastatin]
